Structures are written as SMILES. The source made the active and inactive calls. The calls are words filed in the database; no cut-off is given here.

Here are results for 10 molecules from ChEMBL document CHEMBL1159289, “Enzyme inhibitors: new and known polybrominated phenols and diphenyl ethers from four Indo-Pacific Dysidea sponges” (J Nat Prod, 1995).

Assay [1] can be described thus: Inhibition of tyrosine-protein kinase pp60v-src.
The target of assay [2] is GMP synthase [glutamine-hydrolyzing] (Homo sapiens) (UniProt P49915). Description: Inhibition of GMPS in human A3.01 cells at 50 uM. Format: cell-based.
A short description of assay [3]: Inhibition of inosine monophosphate dehydrogenase. More on the design: unit not given here.
Assay [4] is described as follows: Inhibition of matrix metalloprotease.
Assay [5] deals with T1, Polyunsaturated fatty acid lipoxygenase ALOX15 (Homo sapiens, UniProt P16050).
T1 sequence (P16050 whole entry): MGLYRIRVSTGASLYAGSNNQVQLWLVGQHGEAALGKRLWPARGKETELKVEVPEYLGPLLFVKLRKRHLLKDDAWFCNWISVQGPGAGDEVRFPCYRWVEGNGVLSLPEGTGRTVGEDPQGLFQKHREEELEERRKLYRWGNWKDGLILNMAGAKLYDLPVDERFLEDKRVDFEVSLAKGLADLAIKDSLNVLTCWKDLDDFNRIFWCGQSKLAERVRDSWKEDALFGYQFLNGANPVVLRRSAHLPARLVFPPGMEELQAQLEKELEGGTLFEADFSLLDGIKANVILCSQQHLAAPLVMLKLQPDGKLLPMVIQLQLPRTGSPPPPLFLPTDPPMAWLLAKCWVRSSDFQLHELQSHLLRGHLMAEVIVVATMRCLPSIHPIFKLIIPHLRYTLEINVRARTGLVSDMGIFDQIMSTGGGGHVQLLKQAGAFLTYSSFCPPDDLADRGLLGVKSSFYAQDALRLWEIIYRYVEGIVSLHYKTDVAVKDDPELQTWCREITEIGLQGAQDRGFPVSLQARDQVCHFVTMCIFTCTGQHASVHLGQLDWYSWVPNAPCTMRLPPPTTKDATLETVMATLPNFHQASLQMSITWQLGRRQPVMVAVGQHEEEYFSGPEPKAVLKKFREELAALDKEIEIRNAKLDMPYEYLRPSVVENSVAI
Description: Inhibition of 15-lipoxygenase.

The nature of assay [6]: Inhibition of PKC.
Assay [7] deals with T2, Polyunsaturated fatty acid lipoxygenase ALOX15 (Homo sapiens) (UniProt P16050).
T2 sequence (whole entry): T1 sequence (P16050 whole entry)
Description: Inhibition of 15-lipoxygenase at 40 ug/ml. As to conditions: at 40 µg/mL.

Sequence of GMP synthase [glutamine-hydrolyzing] (Homo sapiens) (P49915 whole entry): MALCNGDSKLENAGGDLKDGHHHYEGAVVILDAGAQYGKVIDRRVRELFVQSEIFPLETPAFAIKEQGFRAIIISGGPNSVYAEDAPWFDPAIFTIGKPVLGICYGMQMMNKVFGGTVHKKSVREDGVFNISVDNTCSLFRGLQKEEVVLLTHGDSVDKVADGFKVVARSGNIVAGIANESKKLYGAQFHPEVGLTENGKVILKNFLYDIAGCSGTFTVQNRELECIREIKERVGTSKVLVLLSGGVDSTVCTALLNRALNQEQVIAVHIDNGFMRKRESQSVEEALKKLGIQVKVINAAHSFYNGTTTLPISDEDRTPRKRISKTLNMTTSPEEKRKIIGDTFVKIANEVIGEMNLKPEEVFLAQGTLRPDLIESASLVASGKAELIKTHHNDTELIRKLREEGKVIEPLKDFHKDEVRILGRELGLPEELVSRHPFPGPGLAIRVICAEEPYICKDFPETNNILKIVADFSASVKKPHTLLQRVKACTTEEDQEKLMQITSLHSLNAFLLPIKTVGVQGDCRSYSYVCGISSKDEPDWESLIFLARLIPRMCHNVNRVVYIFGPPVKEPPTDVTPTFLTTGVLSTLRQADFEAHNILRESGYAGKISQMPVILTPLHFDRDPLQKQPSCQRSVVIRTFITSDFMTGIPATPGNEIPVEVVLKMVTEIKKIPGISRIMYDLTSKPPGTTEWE

For the molecule `COc1c(Br)cc(Br)cc1Oc1c(O)cc(Br)cc1Br`, the result in assay [1] was inactive.
`Oc1c(Br)cc(Br)cc1Oc1c(Br)cc(Br)c(Br)c1O` came in with an inhibition in assay [2] of 70%. For the same molecule, the EC50 in assay [3] is reported as 7.8. For the same molecule, the outcome in assay [4] and in assay [1] was inactive. Besides, it took 2.5 µM to reach half-maximal inhibition in assay [5] (IC50).
In the case of `Oc1c(Br)cc(Br)cc1Oc1ccc(Br)cc1Br`, the outcome in assay [1] was inactive.
Still for that read-out and setting: in the case of `COc1cc(Br)cc(Br)c1Oc1cc(Br)cc(Br)c1O` it was “inactive”.
Turning to `Oc1cc(Br)cc(Br)c1Oc1ccc(Br)cc1Br`, in assay [2], the inhibition stood at 56%. Moreover, the EC50 in assay [3] worked out at 5.71. Further, the outcome in assay [4] and in assay [1] was inactive.
Turning to `Oc1cc(Br)c(Br)c(Br)c1Oc1cc(Br)cc(Br)c1O`, the inhibition in assay [2] came to 89%. In addition, the outcome in assay [4] and in assay [1] was inactive.
As for `Oc1c(Br)cc(Br)cc1Oc1c(O)c(Br)c(Br)c(Br)c1Br`, the result in assay [6], in assay [4] and in assay [1] was inactive. This molecule yielded an inhibition in assay [2] of 96%. The EC50 in assay [3] came to 2.79. In assay [5], this molecule returned an IC50 of 1.3 µM.
In assay [2], `Oc1c(Oc2ccc(Br)cc2Br)cc(Br)c(Br)c1Br` registered an inhibition of 71%. The molecule also displayed an EC50 in assay [3] of 4.4. Also, the outcome in assay [4] and in assay [1] was inactive. The IC50 in assay [5] was determined as 7.4 µM.
In the case of `Oc1cc(Br)c(Br)c(Br)c1Oc1ccc(Br)cc1Br`, the inhibition in assay [2] came out at 99%. In assay [3], this molecule had an EC50 of 4. The outcome in assay [4] and in assay [1] was inactive. Moreover, the IC50 in assay [5] amounted to 7.4 µM.
On to `Oc1cc(Br)cc(Br)c1Oc1c(O)cc(Br)c(Br)c1Br`, for which the inhibition in assay [7] is 100%.
